Values quoted from earlier work, collected in patent US20080090885A1 (priority 2006, published 2008).

Experiments:
[1] = for half-life: in vivo
[2] = target: T1, AT1 receptor (Homo sapiens, UniProt P30556)
T1 sequence (P30556 1-359): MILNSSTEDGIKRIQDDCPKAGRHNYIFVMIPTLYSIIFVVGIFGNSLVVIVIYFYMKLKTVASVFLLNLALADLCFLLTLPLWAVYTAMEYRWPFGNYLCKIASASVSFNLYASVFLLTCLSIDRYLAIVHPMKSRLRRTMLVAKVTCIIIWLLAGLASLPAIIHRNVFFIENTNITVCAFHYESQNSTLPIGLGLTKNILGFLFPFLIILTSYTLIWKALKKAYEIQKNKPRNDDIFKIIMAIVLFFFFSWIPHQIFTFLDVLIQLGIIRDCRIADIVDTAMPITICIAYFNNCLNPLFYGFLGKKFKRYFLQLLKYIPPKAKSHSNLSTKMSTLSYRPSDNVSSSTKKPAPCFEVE

SMILES: CCCCc1nc(Cl)c(CO)n1Cc1ccc(-c2ccccc2-c2nn[nH]n2)cc1 [Losartan]
- half-life [1]: about 2 hours
- oral bioavailability ([1]; oral): about 33%
- peak plasma levels (time to peak) ([1]; oral): 1 h
- type of AT1 receptor antagonism [2]: potent, competitive AT1 receptor antagonist

SMILES: CCCCc1nc(Cl)c(C(=O)O)n1Cc1ccc(-c2ccccc2-c2nn[nH]n2)cc1 [EXP-3174, losartan 5-carboxylic acid]
- half-life [1]: 6 to 9 h
- type of AT1 receptor antagonism [2]: non-competitive AT1 receptor antagonist
